Experiments:
SMNDC1-GFP αTC1 clones = experiment: Live imaging of endogenously tagged SMNDC1-GFP; assay type: cell-based, mouse; conditions: 50 µM, 12–16 h
Source text: Cell lines with fluorescent tags in the endogenous intron loci of different genes were generated as described in Serebrenik et al., and Reicher et al.[39],[74]. Cells were transiently transfected using Avalanche-Everyday Transfection Reagent with three plasmids in parallel: (1) the donor plasmid containing the artificial intron with splice acceptor and splice donor site, the fluorescent tag GFP or RFP, and a possible correction for the frame of the targeted intron, (2) a pX330 backbone containing Cas9 and the gRNA against the donor plasmid, and (3) a plasmid expressing the gRNA against the target intron (see table below). After 3–5 days, GFP- and/or RFP-positive cells were sorted on a SONY SH800 Cell Sorter to get fluorescent single cell clones. Clones were validated for the correct integration of the intron-tag via comparison of live cell images to publicly available or in-house IF images, genomic DNA PCR amplification of the respective loci, and western blots with antibodies against the target protein and/or the fluorescent tag.
Cells were imaged on a PerkinElmer Opera Phenix automated microscope with 500 ms exposure time in either GFP or RFP channel, or on a Zeiss LSM 980 microscope. For condition-independent identification nuclear markers such as Hoechst or DRAQ5^TM were used.
Images were analyzed using the high-content image acquisition and analysis software Harmony® 4.9 developed by PerkinElmer. First, nuclei were identified in the channel of the nuclear marker (DAPI/ Hoechst/ DRAQ5^TM) (with Method C, Common Threshold 0.75, Area > 10 µm^2). After the identification of nuclei, their corresponding cytoplasm was also identified using the respective nucleic acid marker (with Method A, Individual Threshold 0.15). Even though the highest staining of these nuclear markers is obviously detected in the nucleus they still produce a significant staining of the cytoplasm above background. After defining the respective cell areas, mean intensity in the different channels was measured. Finally, spots were identified with the according “Spots” algorithm (with Method A, Relative Spot Intensity > 0.053, Splitting Sensitivity: 1.0).

αTC1 cells = experiment: Alternative splicing, RNA sequencing (VAST-TOOLS) and RT-PCR; assay type: cell-based, mouse
Description: To perform splicing PCRs, RNA was isolated from pelleted cells using the RNeasy Mini Kit (Qiagen, #74106).
RNA sequencing libraries were prepared from low-input samples using the Smart-seq2 protocol. The subsequent library preparation from the amplified cDNA was performed using the Nextera XT DNA library prep kit (Illumina, San Diego, CA, USA). Library concentrations were quantified with the Qubit 2.0 Fluorometric Quantitation system (Life Technologies, Carlsbad, CA, USA) and the size distribution was assessed using the Experion Automated Electrophoresis System (Bio-Rad, Hercules, CA, USA). For sequencing, samples were diluted and pooled into NGS libraries in equimolar amounts.
Alternative splicing events were characterized and quantified using VAST-TOOLS[54] (2.5.1) in conjunction with the Mus musculus database (vastdb.mm2.23.06.20), based on the Genome Reference Consortium assembly GRCm38.p5 and Ensembl transcript annotation 88 (March 2017). Briefly, NGS reads were aligned for each read group independently, read groups were merged into samples and samples were combined into a summary table. […]

In the case of `CN(C)S(=O)(=O)c1ccc(C(=O)Nc2nc(-c3ccccn3)cs2)cc1` [compound 1], the “SMNDC1-GFP spots within the nucleus” value (SMNDC1-GFP αTC1 clones) is reported as “less spots were detected within the nucleus”, the “SMNDC1 within the nucleus (nuclear SMNDC1-GFP)” value (SMNDC1-GFP αTC1 clones) is reported as “loss of SMNDC1 within the nucleus” and the “alternatively spliced isoforms by RT-PCR, long-term low-dose treatment” value (αTC1 cells; 2 µM over 5 days) is reported as “could also see the effect”. The alternative splicing events (αTC1 cells; paired-end RNA sequencing, compound over DMSO) was “increased retention of introns and skipping of exons”.

From publication PMC10432564, “Pharmacological perturbation of the phase-separating protein SMNDC1” (Nature Communications, 2023)
